Source: US20120132594A1, “AQUEOUS SOLVENTS FOR HYDROCARBONS AND OTHER HYDROPHOBIC COMPOUNDS” (IMPERIAL INNOVATIONS LIMITED, priority 2009, published 2012)

Assay: Extraction of organic standards from spiked JSC-1 rock with aqueous polysorbate 80 solution, GC-MS
Type: physicochemical
Details: ultrasonication 20 minutes
Description: JSC-1, a Martian and lunar analogue (McKay et al. (1993) JSC-1: A new lunar regolith simulant. Lunar and Planetary Institute Conference Abstracts), was spiked with various hydrocarbon compound classes (Table 1 below). All are known to be soluble in organic solvents, and are considered mostly insoluble in water with the exception of atrazine. 1 ml of a mixture of 10.0 ng ml^−1 hydrocarbon standards were spiked on to 1 g of rock, the concentrations of each non-aromatic standard amounted to 10.0 ng g^−1 rock (10 ppb). Terphenyl (an aromatic compound) was used as a second quantitation standard, added just before analysis in order to establish extraction efficiencies for the JSC-1 rock.
1 g samples of spiked JSC-1 rock were placed in test tubes, with 3 ml solvent and the mixture subjected to ultrasonication (20 minutes). The solvent was an aqueous surfactant solution containing polysorbate 80 in various amounts (either 1.5 g/L or 2.5 g/L), as set out in Table 1 below. The surfactant was dissolved either in water that contains 20% methanol (referred to in Table 1 as “w MeOH”) or pure water (“w/o MeOH”). After sonication the mixture was centrifuged (2500 rpm×10 min) and the supernatant pipetted into a test tube. A liquid/liquid extraction was then performed with dichloromethane, the dichloromethane was then blown down via nitrogen to 1 ml ready for further analysis by gas chromatography-mass spectrometry.
The organic constituents of extracts were separated on an Agilent technologies 6890N gas chromatograph. Extracts were dissolved in 1 ml dichloromethane and 1 μl was introduced via splitless injection into a HP-5 (0.25 mm×30 m×[…]) capillary column in a helium carrier gas. The column oven was operated with a temperature programme starting at 50° C. for 1 min followed by a ramp of 5° C. min−1 until 310° C. where the temperature was held for 20 min. Individual compounds were identified by introducing the column effluent into an Agilent technologies 5973 inert mass selective detector operated with a 12 min solvent delay and a scan range of m/z 50-550.
The extraction efficiency is measured as the percentage of the organic compounds that are extracted as compared to the amount originally present in the rock. […] Other variables include temperature and pressure. As can also be seen from Table 1, the optimum recovery appears to take place between about 0.5 an 3 grams per litre of polysorbate 80, which corresponds to 40 to 230 times the cmc of polysorbate 80.

[1] = polysorbate 80 1.5 g/L, with MeOH (water containing 20% methanol)
[2] = polysorbate 80 1.5 g/L, without MeOH (pure water)
[3] = polysorbate 80 2.5 g/L, with MeOH (water containing 20% methanol)
[4] = polysorbate 80 2.5 g/L, without MeOH (pure water)

Molecule `c1ccc2cc3ccccc3cc2c1` [Anthracene] has an Extraction efficiency [1] of 0%, an Extraction efficiency [2] of 0% and an Extraction efficiency [3] of 5.2%. The Extraction efficiency [4] was 22.86%.

Work on `CCNc1nc(Cl)nc(NC(C)C)n1` [Atrazine] yielded an Extraction efficiency [1] of 7.35%, an Extraction efficiency [2] of 12.6% and an Extraction efficiency [3] of 5.4%. The Extraction efficiency [4] was 5.62%.

Work on `c1ccc2c(c1)c1cccc3ccc4cccc2c4c31` [Benzo(e)pyrene] yielded an Extraction efficiency [1] of 2.38%, an Extraction efficiency [2] of 0% and an Extraction efficiency [3] of 20.33%. The Extraction efficiency [4] was 30.55%.

With `CCCCCCCCCCCCCCCC` [Hexadecane] the Extraction efficiency [1] was 4.21%, the Extraction efficiency [2] was 14.2% and the Extraction efficiency [3] was 0.54%. The Extraction efficiency [4] was 0.73%.

With `CCC(C)CCCC(C)CCCC(C)CCCC(C)C` (stereo not shown) [Phytane] the Extraction efficiency [1] was 8.91%, the Extraction efficiency [2] was 29.08% and the Extraction efficiency [3] was 0.93%. The Extraction efficiency [4] was 10.7%.

Work on `CC(C)=CCC/C(C)=C/CC/C(C)=C/CC/C=C(\C)CC/C=C(\C)CCC=C(C)C` [Squalene] yielded an Extraction efficiency [1] of 6.11%, an Extraction efficiency [2] of 19.71% and an Extraction efficiency [3] of 0.58%. The Extraction efficiency [4] was 9.11%.

With `CC[C@H](/C=C/[C@@H](C)[C@H]1CC[C@H]2[C@@H]3CC=C4C[C@@H](O)CC[C@]4(C)[C@H]3CC[C@]12C)C(C)C` [Stigmasterol] the Extraction efficiency [1] was 0%, the Extraction efficiency [2] was 0% and the Extraction efficiency [3] was 3.06%. It also gave an Extraction efficiency [4] of 10.88%.
